ChEMBL document CHEMBL1201862, “PubChem BioAssay data set” (2004)
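Interpolation was linear, between the two tested concentrations surrounding the appropriate level; five concentrations were tested over 48 hours in 96-well plates. GI50: concentration for 50% inhibition of growth.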 Activity calls are given as the source filed them. No stated cut-off is given here; in the data, active = GI50 up to about 1.1 µM and inactive = higher.

Key:
Test in all cases: NCI anticancer screen, dose series, 48 h
[1] = test system: HL-60
[2] = test system: SF-295
[3] = test system: M14
[4] = test system: HOP-62
[5] = test system: SR
[6] = test system: NCI-H522
[7] = test system: NCI-H226
[8] = test system: DU-145
[9] = test system: RPMI-8226
[10] = test system: OVCAR-3
[11] = test system: SW-620
[12] = test system: KM12
[13] = test system: MOLT-4
[14] = test system: UACC-257
[15] = test system: ACHN
[16] = test system: A549
[17] = test system: HOP-92
[18] = test system: SN12C
[19] = test system: MDA-N
[20] = test system: MDA-MB-231
[21] = test system: RXF 393
[22] = test system: T47D
[23] = test system: HCC 2998
[24] = test system: Malme-3M
[25] = test system: NCI-H23
[26] = test system: SK-OV-3
[27] = test system: MDA-MB-435
[28] = test system: OVCAR-4
[29] = test system: 786-0
[30] = test system: SK-MEL-28
[31] = test system: CAKI-1
[32] = test system: HCT-116
[33] = test system: OVCAR-8
[34] = test system: Hs-578T
[35] = test system: TK-10
[36] = test system: SNB-19
[37] = test system: IGROV-1
[38] = test system: COLO 205
[39] = test system: K562
[40] = test system: SF-539
[41] = test system: UO-31
[42] = test system: MCF7
[43] = test system: CCRF-CEM
[44] = test system: BT-549
[45] = test system: NCI-H460
[46] = test system: SNB-75
[47] = test system: UACC-62
[48] = test system: A498
[49] = test system: HT-29
[50] = test system: LOX IMVI
[51] = test system: SK-MEL-2
[52] = test system: SF-268
[53] = test system: EKVX
[54] = test system: SK-MEL-5
[55] = test system: OVCAR-5
[56] = test system: HCT-15
[57] = test system: U-251
[58] = test system: PC-3
[59] = test system: NCI/ADR-RES

Measured: GI50

COc1ccc(C(=O)/C=C/c2ccc3c(c2)OCO3)c(OCc2ccccc2)c1
inactive: [1] 2.01 µM | [2] > 61.8 µM | [3] > 65.5 µM | [4] > 100 µM | [5] 3.24 µM | [6] 9.68 µM | [7] 18.6 µM | [8] > 39.2 µM | [9] 4.45 µM | [10] 19.1 µM | [11] 8.71 µM | [12] 4.83 µM | [13] 3.8 µM | [14] > 63 µM | [15] 16.6 µM | [16] 47.3 µM | [17] > 78 µM | [18] 15.9 µM | [19] 11.7 µM | [20] > 70.1 µM | [21] 11 µM | [22] > 43.5 µM | [23] 8.28 µM | [24] > 100 µM | [25] 24.3 µM | [26] > 54.8 µM | [27] 25.5 µM | [28] 15.1 µM | [29] > 67.8 µM | [30] > 100 µM | [31] 11.8 µM | [32] 6.79 µM | [33] 7.67 µM | [34] 7.82 µM | [35] > 90.8 µM | [36] > 100 µM | [37] 17.7 µM | [38] > 75.5 µM | [39] 12.5 µM | [40] 32.7 µM | [41] 37.2 µM | [42] 6.22 µM | [43] 4.3 µM | [44] 4.79 µM | [45] 8.22 µM | [46] > 55.1 µM | [47] 17.4 µM | [48] > 84.9 µM | [49] 6.78 µM | [50] 7.89 µM | [51] > 57.1 µM | [52] 6.76 µM | [53] 29.8 µM | [54] 25.6 µM | [55] > 76.7 µM | [57] > 57.5 µM | [58] 11.6 µM
5.08 µM: [56]

COC[C@@H](C[C@H]1O[C@@](O)([C@H](O)[C@@H]2C[C@H](OC)[C@@H](O)CC/C=C(C)/C=C/[C@@H](O[C@@H]3O[C@@H](C)[C@H](OC)[C@@H](O)[C@@H]3O)[C@H](C)/C=C(C)/C=C(C)/C=C(\C)C(=O)O2)[C@H](C)[C@@H](O)[C@H]1C)O[C@H]1C[C@](C)(O)[C@@H](O[C@H]2C[C@@H](OC)[C@H](O)[C@@H](C)O2)C(C)O1 (some centres undefined)
active: [1] 0.869 µM | [2] 0.857 µM | [6] 0.0685 µM | [7] 0.91 µM | [14] 0.0374 µM | [22] 0.188 µM | [25] 0.0532 µM | [38] 0.221 µM | [39] 0.149 µM | [42] 0.0785 µM | [53] 0.119 µM | [54] 0.182 µM | [57] 0.0628 µM | [58] 0.0447 µM
inactive: [3] > 100 µM | [59] > 100 µM | [8] > 61.8 µM | [9] 86.5 µM | [10] 63.1 µM | [11] > 85.7 µM | [12] > 66.2 µM | [13] 2.44 µM | [15] 96.4 µM | [16] 1.32 µM | [17] > 90.2 µM | [18] > 100 µM | [19] > 100 µM | [20] > 100 µM | [21] > 100 µM | [23] > 80.2 µM | [26] > 100 µM | [27] > 89.1 µM | [28] 41.3 µM | [29] > 100 µM | [30] > 67.8 µM | [31] > 100 µM | [32] > 100 µM | [33] 1.44 µM | [34] 69 µM | [35] > 100 µM | [37] > 100 µM | [40] > 100 µM | [41] > 100 µM | [44] > 92.3 µM | [45] > 61 µM | [47] > 100 µM | [49] > 100 µM | [50] 46.5 µM | [51] > 55 µM | [52] > 40.8 µM | [55] > 100 µM
> 100 µM: [56]

NCC(O)CSCc1ccc(Cl)cc1 (centres undefined)
inactive: [1] > 100 µM | [2] > 100 µM | [3] > 100 µM | [4] > 100 µM | [6] > 100 µM | [59] > 100 µM | [7] > 100 µM | [8] > 100 µM | [9] > 100 µM | [10] > 100 µM | [11] > 100 µM | [12] > 100 µM | [13] > 100 µM | [14] > 100 µM | [15] > 100 µM | [16] > 100 µM | [17] > 100 µM | [18] > 100 µM | [19] > 100 µM | [20] > 100 µM | [21] > 100 µM | [22] > 100 µM | [23] > 100 µM | [24] > 100 µM | [25] > 100 µM | [26] > 100 µM | [27] > 100 µM | [28] > 100 µM | [29] > 100 µM | [30] > 100 µM | [31] > 100 µM | [32] > 100 µM | [33] > 100 µM | [34] > 100 µM | [35] > 100 µM | [36] > 100 µM | [37] > 100 µM | [38] > 100 µM | [39] > 100 µM | [41] > 100 µM | [42] > 100 µM | [43] > 100 µM | [44] > 100 µM | [45] > 100 µM | [47] > 100 µM | [48] > 100 µM | [49] > 100 µM | [50] > 100 µM | [52] > 100 µM | [54] > 100 µM | [55] > 100 µM | [57] > 100 µM | [58] > 100 µM
> 100 µM: [56]
